Where two headings read alike, the source gives them in different places.
Tests used:
spleen lymphocytes [1] = settings: for stimulation of DNA synthesis (in words): BSA
From the text: (§1) The effect of the compounds of this invention on the immune response to specific antigens involves immunization of mice with specific antigens such as bovine serum albumin (BSA) or keyhole limpet hemocyanin (KLH). Following immunization, it is possible to assess the cell-mediated or humoral (antibody) immune response to these antigens by various methods:
(§2) (1) Lymphocyte stimulation assays can be performed using varying concentrations of the specific antigens as mitogens in the lymphocyte stimulation microculture system described above. The only difference is that the incubation period is extended to five days instead of three as for the polyclonal mitogens.
(§3) Mice of the C57BL/6 strain are given i.p. injections of either 50, 100, 200 or 400 mg/kg of Cpd. 1 or buffer for twelve days (days 1-12). An antigen, bovine serum albumin (BSA), is administered intraperitoneally with Freund's Complete Adjuvant (FCA) on days 1, 7 and 14. Blood samples are taken for assay of the antibody response on days 0, 5, 13, and 19.

spleen lymphocytes [2] = system: spleen lymphocytes
From the text: as §1, §2
Mice of the C57BL/6 strain are given i.p. injections of either 50, 100, 200 or 400 mg/kg of Cpd. 1 or buffer for ten days (days 1-10). An antigen, keyhole limpet hemocyanin (KLH), is administered intraperitoneally with Freund's Complete Adjuvant (FCA) on days 1, 7, and 13. Blood samples are taken for assay of the antibody response on days 0, 5, 12, and 17. Spleens are removed, lymphocytes isolated and a lymphocyte stimulation assay with PHA, Con-A or KLH antigen as the mitogens is performed on day 17 of the experiment.

spleen lymphocytes [3] = settings: for Lymphocyte Stimulation Index, Control (no mitogen): 100 mg/kg i.p.; for effect on mitogen response (in words): 100 mg/kg
Protocol: (§4) The purpose of this assay is to challenge lymphocytes in microcultures with one or more polyclonal mitogens at concentrations that will induce mitogenesis within 72 hours of stimulation.
(§5) In the mouse model, spleens are removed from different strains of mice and the spleen cells are teased free and suspended in RPMI-1640 tissue culture medium at a concentration of usually […]. These cells are dispensed at a concentration of 5.0×10^5 cells per microculture well in a 96 well flat bottom 96 well tissue culture plate. All testing of the compounds of this invention or mitogens are done in replicates of 10. The cells are then treated with PHA, Con-A, specific antigens, or buffer only. If in vitro testing is done, varying concentrations of the compounds of this invention or buffer only are added to the cells as well. After treatment with the mitogens and/or compounds of this invention, the cells are incubated for 72 hours. The response of these cells to mitogens and/or the compounds of this invention is assessed using ^14 C-thymidine labeling on the fourth day at a concentration of 0.01 μCi/well. The labeled cells are harvested using a lymphocyte harvestor and placed onto fibrous paper discs. A scintillation cocktail is added to vials containing the discs and the results are obtained using a LKB-liquid scintillation counter (Model 1216/Rackbeta II). The data is expressed as a ratio of the cpm of the mitogen stimulated group to the control (nonmitogen) treated group=lymphocyte stimulation index (LSI).
(§6) The lymphocyte stimulation assay may be performed directly on spleen cells obtained from various strains of mice not treated with the compounds of this invention or on lymphocytes obtained from human […]. […] Alternatively, the mice may be treated in vivo with the compounds of this invention by intraperitoneal multi-dose schedules, followed by sacrifice and harvesting spleen lymphocytes. These cells are then tested for their response to polyclonal mitogens or specific antigens used to immunize the mice. In this system however, no additional compound is added to the in vitro lymphocyte stimulation assay system.
Three month old mice of the SJL/J strain, which are T-cell deficient, are treated with i.p. administration of 100, 200, or 400 mg/kg of Cpd. 1 or just buffer for four days. This is followed by a lymphocyte stimulation assay.
An in vivo lymphocyte stimulation assay was performed on SJL/J mice of different ages, either 2, 5, or 10 months. The mice received i.p. injections of either 100 mg/kg of Cpd. 1 or just buffer.

BSA antibody response = system: BSA antibody response
From the text: as §1
(2) Antibody response to soluble antigens such as BSA or KLH can be quantitated using a micro-ELISA solid phase heterogeneous immunoassay. The assay can be designed to quantitate class specific immunoglobulins (i.e., IgG or IgM).
The cut-off for the titer was the highest dilution of mouse serum yielding on O.D.≤0.1 when read on the MR-600 Dynatech micro-ELISA reader.
as §3

spleen lymphocytes [4] = settings: 7 days
Protocol: as §4, §5, §6
Two strains of mice, C57BL/6 and BDF1 are treated for seven days with i.p. administration of either 25, 50, 100, 200, or 400 mg/kg of Cpd. 1 or just buffer. This is followed on the eighth day by a lymphocyte stimulation assay.

Compound: Cc1ccc(C2(O)C(=O)OC3C(O)COC32O)o1.Cc1ccc(C2(O)C(=O)OC3C(O)COC32O)o1.O=C1CCC(=O)O1 (stereo not drawn) [Cpd. 1, 2-furylbutyrolactone:succinic anhydride]
- Lymphocyte Stimulation Index (spleen lymphocytes [1]; 50 mg/kg, BSA 0 μg/well, Day 19): .26
- stimulation of DNA synthesis (in words) (spleen lymphocytes [1]; 50 mg/kg, day 19): This effect has waned by day 19
- Lymphocyte Stimulation Index (spleen lymphocytes [1]; 100 mg/kg, BSA 0 μg/well, Day 19): 4.1
- Lymphocyte Stimulation Index (spleen lymphocytes [1]; 100 mg/kg, BSA 0.01 μg/well, Day 13): 9.8
- Lymphocyte Stimulation Index (spleen lymphocytes [1]; 100 mg/kg, BSA 1.0 μg/well, Day 19): .26
- Lymphocyte Stimulation Index (spleen lymphocytes [1]; 200 mg/kg, BSA 0 μg/well, Day 19): 0.42
- Lymphocyte Stimulation Index (spleen lymphocytes [1]; 200 mg/kg, BSA 1 μg/well, Day 13): 14.0
- Lymphocyte Stimulation Index (spleen lymphocytes [1]; 400 mg/kg, BSA 0 μg/well, Day 19): 5.0
- stimulation of DNA synthesis (in words) (spleen lymphocytes [1]; day 13): Only the 50 mg/kg dose shows significant stimulation of DNA synthesis on day 13 compared to controls
- Lymphocyte Stimulation Index, Con-A (spleen lymphocytes [2]; 50 mg/kg, Day 17): 19.0
- Lymphocyte Stimulation Index (spleen lymphocytes [2]; 50 mg/kg, KLH 0.025 μg/well, Day 17): 0.0386
- Lymphocyte Stimulation Index (spleen lymphocytes [2]; 50 mg/kg, KLH 0.05 μg/well, Day 17): 0.357
- Lymphocyte Stimulation Index (spleen lymphocytes [2]; 50 mg/kg, KLH 0.5 μg/well, Day 17): 0.415
- Lymphocyte Stimulation Index (spleen lymphocytes [2]; 50 mg/kg, KLH 1.0 μg/well, Day 17): 0.536
- Lymphocyte Stimulation Index (spleen lymphocytes [2]; 100 mg/kg, KLH 0.025 μg/well, Day 17): 0.401
- Lymphocyte Stimulation Index (spleen lymphocytes [2]; 100 mg/kg, KLH 0.05 μg/well, Day 17): 0.526
- Lymphocyte Stimulation Index (spleen lymphocytes [2]; 100 mg/kg, KLH 0.5 μg/well, Day 17): 0.734
- Lymphocyte Stimulation Index (spleen lymphocytes [2]; 100 mg/kg, KLH 1.0 μg/well, Day 17): 0.898
- lymphocyte DNA synthesis (in words) (spleen lymphocytes [2]; 200 mg/kg, Con-A or KLH, day 17): statistically significant increase in lymphocyte DNA synthesis
- Lymphocyte Stimulation Index (spleen lymphocytes [2]; 200 mg/kg, KLH 0.025 μg/well, Day 17): 3.91
- Lymphocyte Stimulation Index (spleen lymphocytes [2]; 200 mg/kg, KLH 0.05 μg/well, Day 17): 1.02
- Lymphocyte Stimulation Index (spleen lymphocytes [2]; 200 mg/kg, KLH 0.5 μg/well, Day 17): 4.26
- Lymphocyte Stimulation Index (spleen lymphocytes [2]; 200 mg/kg, KLH 1.0 μg/well, Day 17): 7.45
- Lymphocyte Stimulation Index, Control (no mitogen) (spleen lymphocytes [2]; 400 mg/kg, Day 17): 0.840
- Lymphocyte Stimulation Index (spleen lymphocytes [2]; 400 mg/kg, KLH 0.025 μg/well, Day 17): 1.03
- Lymphocyte Stimulation Index (spleen lymphocytes [2]; 400 mg/kg, KLH 0.05 μg/well, Day 17): 0.667
- Lymphocyte Stimulation Index (spleen lymphocytes [2]; 400 mg/kg, KLH 0.5 μg/well, Day 17): 0.232
- Lymphocyte Stimulation Index (spleen lymphocytes [2]; 400 mg/kg, KLH 1.0 μg/well, Day 17): 0.589
- Lymphocyte Stimulation Index, Control (no mitogen) (spleen lymphocytes [3]; age 2 months): 2.3
- Lymphocyte Stimulation Index, Control (no mitogen) (spleen lymphocytes [3]; age 5 months): 1.9
- Lymphocyte Stimulation Index, Control (no mitogen) (spleen lymphocytes [3]; age 10 months): 2.1
- effect on mitogen response (in words) (spleen lymphocytes [3]; age 2 months): decreased PHA versus increased Con-A response
- effect on mitogen response (in words) (spleen lymphocytes [3]; age 5 months): depressed mitogenesis response to both PHA and Con-A
- effect on mitogen response (in words) (spleen lymphocytes [3]; age 10 months): significant stimulation of both the PHA and Con-A mitogenic response
- Lymphocyte Stimulation Index, Con-A (spleen lymphocytes [3]; 400 mg/kg i.p., four days, three month old): 3.30
- Micro-ELISA Titer (BSA antibody response; 50 mg/kg i.p., Day 5): N/R
- Micro-ELISA Titer (BSA antibody response; 50 mg/kg i.p., Prebleed): N/R
- antibody titer versus control (in words) (BSA antibody response; 50 mg/kg, day 19): A slight increase of antibody titer over the control
- Micro-ELISA Titer (BSA antibody response; 100 mg/kg i.p., Day 5): N/R
- Micro-ELISA Titer (BSA antibody response; 100 mg/kg i.p., Prebleed): N/R
- Micro-ELISA Titer (BSA antibody response; 200 mg/kg i.p., Day 5): N/R
- Micro-ELISA Titer (BSA antibody response; 200 mg/kg i.p., Prebleed): N/R
- Micro-ELISA Titer (BSA antibody response; 400 mg/kg i.p., Day 5): N/R
- Micro-ELISA Titer (BSA antibody response; 400 mg/kg i.p., Prebleed): N/R
- antibody response versus control (in words) (BSA antibody response; 400 mg/kg, day 19): the antibody responses to BSA are equal at the 0 mg/kg and 400 mg/kg dose
- stimulation of antibody response (in words) (BSA antibody response; 50 and 100 mg/kg, day 13): only a slight amount of stimulation
- increase over controls of antibody titer (fold) (BSA antibody response; 100 and 200 mg/kg, day 19): 16 fold
- stimulation of antibody response (fold) (BSA antibody response; 200 and 400 mg/kg, day 13): four-fold
- Lymphocyte Stimulation Index, Con-A (spleen lymphocytes [4]; 25 mg/kg i.p.): 4.3
- Lymphocyte Stimulation Index, Control (buffer, pH 8.05) (spleen lymphocytes [4]; 25 mg/kg i.p.): 0.8
- Lymphocyte Stimulation Index, PHA (spleen lymphocytes [4]; 25 mg/kg i.p.): 13.8
- Lymphocyte Stimulation Index, Con-A (spleen lymphocytes [4]; 50 mg/kg i.p.): 21.6
- Lymphocyte Stimulation Index, Control (buffer, pH 8.05) (spleen lymphocytes [4]; 50 mg/kg i.p.): 0.9
- Lymphocyte Stimulation Index, PHA (spleen lymphocytes [4]; 50 mg/kg i.p.): 52.1
- Lymphocyte Stimulation Index, Con-A (spleen lymphocytes [4]; 100 mg/kg i.p.): 17.9
- Lymphocyte Stimulation Index, Control (buffer, pH 8.05) (spleen lymphocytes [4]; 100 mg/kg i.p.): 0.7
- Lymphocyte Stimulation Index, PHA (spleen lymphocytes [4]; 100 mg/kg i.p.): 48.7
- Lymphocyte Stimulation Index, Con-A (spleen lymphocytes [4]; 200 mg/kg i.p.): 2.9
- Lymphocyte Stimulation Index, Control (buffer, pH 8.05) (spleen lymphocytes [4]; 200 mg/kg i.p.): 0.8
- Lymphocyte Stimulation Index, PHA (spleen lymphocytes [4]; 200 mg/kg i.p.): 7.8
- Lymphocyte Stimulation Index, Con-A (spleen lymphocytes [4]; 400 mg/kg i.p.): 0.9
- Lymphocyte Stimulation Index, Control (buffer, pH 8.05) (spleen lymphocytes [4]; 400 mg/kg i.p.): 0.9
- Lymphocyte Stimulation Index, PHA (spleen lymphocytes [4]; 400 mg/kg i.p.): 1.1

— patent publication US4518611A, “2-Furylbutyrolactone modulation of the immune system in mammals” (priority 1983, dated 1985)
